Organism: Rattus norvegicus
Assay: Open TG-GATES - Regimen: Daily Repeat
Assay type: toxicity, organism-based, Sprague-Dawley
Set-up: regimen Daily Repeat, gender Male, age 6 weeks
Settings: in vivo, po, 100 mg/kg, route gavage, dose level High; for APTT / Bas / Eos / Fbg / Hb / Ht / Lym / MCH / MCHC / MCV / Mono / Neu / PT / Plat / RBC / Ret / WBC: tissue Blood; for KIDNEY_L / KIDNEY_R / KIDNEY_TOTAL: tissue Kidney; for LIVER: tissue Liver; for A/G / ALP / ALT / AST / BUN / CRE / Ca / Cl / DBIL / GLC / IP / K / LDH / Na / PL / RALB / TBIL / TC / TG / TP / gamma-GTP: tissue Plasma

NC(=O)N/N=C/c1ccc([N+](=O)[O-])o1 [NITROFURAZONE]
TERMINAL_BW (72 h, time 3 day): 206.6 g | APTT (72 h, time 3 day): 15 s | Bas (72 h, time 3 day): 0% | Eos (72 h, time 3 day): 1% | Fbg (72 h, time 3 day): 297 mg/dL | Hb (72 h, time 3 day): 12.7 g/dL | Ht (72 h, time 3 day): 38.8% | Lym (72 h, time 3 day): 83.6% | MCH (72 h, time 3 day): 21.5 pg | MCHC (72 h, time 3 day): 32.8% | MCV (72 h, time 3 day): 65.6 fL | Mono (72 h, time 3 day): 2.8% | Neu (72 h, time 3 day): 11.6% | PT (72 h, time 3 day): 14.6 s | Plat (72 h, time 3 day): 102.7 x10_4/uL | RBC (72 h, time 3 day): 593 x10_4/ul | Ret (72 h, time 3 day): 7% | WBC (72 h, time 3 day): 86.2 x10_2/uL | KIDNEY_L (72 h, time 3 day): 0.9 g | KIDNEY_R (72 h, time 3 day): 1 g | KIDNEY_TOTAL (72 h, time 3 day): 1.9 g | LIVER (72 h, time 3 day): 10.9 g | A/G (72 h, time 3 day): 0.9 | ALP (72 h, time 3 day): 1305.8 IU/L | ALT (72 h, time 3 day): 41.4 IU/L | AST (72 h, time 3 day): 71.4 IU/L | BUN (72 h, time 3 day): 16 mg/dL | CRE (72 h, time 3 day): 0.2 mg/dL | Ca (72 h, time 3 day): 11 mg/dL | Cl (72 h, time 3 day): 104 meq/L | DBIL (72 h, time 3 day): 0.016 mg/dL | GLC (72 h, time 3 day): 176.4 mg/dL | IP (72 h, time 3 day): 7.8 mg/dL | K (72 h, time 3 day): 4.5 meq/L | LDH (72 h, time 3 day): 67.6 IU/L | Na (72 h, time 3 day): 141 meq/L | PL (72 h, time 3 day): 154.8 mg/dL | RALB (72 h, time 3 day): 2.6 g/dL | TBIL (72 h, time 3 day): 0.068 mg/dL | TC (72 h, time 3 day): 89.6 mg/dL | TG (72 h, time 3 day): 66.8 mg/dL | TP (72 h, time 3 day): 5.5 g/dL | gamma-GTP (72 h, time 3 day): 1 IU/L | TERMINAL_BW ([…], time 7 day): 222.5 g | TERMINAL_BW ([…], time 14 day): 223.7 g | TERMINAL_BW ([…], time 28 day): 311.4 g | APTT ([…], time 7 day): 16 s | Bas ([…], time 7 day): 0% | Eos ([…], time 7 day): 0.8% | Fbg ([…], time 7 day): 271.8 mg/dL | Hb ([…], time 7 day): 13.2 g/dL | Ht ([…], time 7 day): 38.8% | Lym ([…], time 7 day): 85.2% | MCH ([…], time 7 day): 20.6 pg | MCHC ([…], time 7 day): 34.1% | MCV ([…], time 7 day): 60.3 fL | Mono ([…], time 7 day): 2.5% | Neu ([…], time 7 day): 10.2% | PT ([…], time 7 day): 14.5 s | Plat ([…], time 7 day): 106.2 x10_4/uL | RBC ([…], time 7 day): 643 x10_4/ul | Ret ([…], time 7 day): 5.5% | WBC ([…], time 7 day): 113.2 x10_2/uL | APTT ([…], time 14 day): 15.4 s | Bas ([…], time 14 day): 0.2% | Eos ([…], time 14 day): 0.8% | Fbg ([…], time 14 day): 318.8 mg/dL | Hb ([…], time 14 day): 14.1 g/dL | Ht ([…], time 14 day): 41.5% | Lym ([…], time 14 day): 86.8% | MCH ([…], time 14 day): 19.7 pg | MCHC ([…], time 14 day): 34% | MCV ([…], time 14 day): 57.9 fL | Mono ([…], time 14 day): 2.6% | Neu ([…], time 14 day): 8.8% | PT ([…], time 14 day): 15.1 s | Plat ([…], time 14 day): 121 x10_4/uL | RBC ([…], time 14 day): 720 x10_4/ul | Ret ([…], time 14 day): 3.8% | WBC ([…], time 14 day): 108.8 x10_2/uL | APTT ([…], time 28 day): 16.6 s | Bas ([…], time 28 day): 0.2% | Eos ([…], time 28 day): 1% | Fbg ([…], time 28 day): 368.6 mg/dL | Hb ([…], time 28 day): 13.9 g/dL | Ht ([…], time 28 day): 41.3% | Lym ([…], time 28 day): 85.8% | MCH ([…], time 28 day): 19.4 pg | MCHC ([…], time 28 day): 33.5% | MCV ([…], time 28 day): 57.9 fL | Mono ([…], time 28 day): 2.8% | Neu ([…], time 28 day): 9.2% | PT ([…], time 28 day): 14.3 s | Plat ([…], time 28 day): 107.6 x10_4/uL | RBC ([…], time 28 day): 714.8 x10_4/ul | Ret ([…], time 28 day): 3.8% | WBC ([…], time 28 day): 116.7 x10_2/uL | KIDNEY_L ([…], time 7 day): 1.1 g | KIDNEY_R ([…], time 7 day): 1 g | KIDNEY_TOTAL ([…], time 7 day): 2.1 g | KIDNEY_L ([…], time 14 day): 1.1 g | KIDNEY_R ([…], time 14 day): 1.1 g | KIDNEY_TOTAL ([…], time 14 day): 2.2 g | KIDNEY_L ([…], time 28 day): 1.5 g | KIDNEY_R ([…], time 28 day): 1.5 g | KIDNEY_TOTAL ([…], time 28 day): 3 g | LIVER ([…], time 7 day): 11.4 g | LIVER ([…], time 14 day): 10.8 g | LIVER ([…], time 28 day): 14.2 g | A/G ([…], time 7 day): 0.9 | ALP ([…], time 7 day): 1211 IU/L | ALT ([…], time 7 day): 32.2 IU/L | AST ([…], time 7 day): 56.8 IU/L | BUN ([…], time 7 day): 14 mg/dL | CRE ([…], time 7 day): 0.2 mg/dL | Ca ([…], time 7 day): 11 mg/dL | Cl ([…], time 7 day): 102.5 meq/L | DBIL ([…], time 7 day): 0.015 mg/dL | GLC ([…], time 7 day): 162.2 mg/dL | IP ([…], time 7 day): 7.4 mg/dL | K ([…], time 7 day): 3.9 meq/L | LDH ([…], time 7 day): 55 IU/L | Na ([…], time 7 day): 141.2 meq/L | PL ([…], time 7 day): 146.8 mg/dL | RALB ([…], time 7 day): 2.6 g/dL | TBIL ([…], time 7 day): 0.055 mg/dL | TC ([…], time 7 day): 87 mg/dL | TG ([…], time 7 day): 39.5 mg/dL | TP ([…], time 7 day): 5.6 g/dL | gamma-GTP ([…], time 7 day): 1 IU/L | A/G ([…], time 14 day): 0.9 | ALP ([…], time 14 day): 975.2 IU/L | ALT ([…], time 14 day): 27.2 IU/L | AST ([…], time 14 day): 86.4 IU/L | BUN ([…], time 14 day): 17.8 mg/dL | CRE ([…], time 14 day): 0.2 mg/dL | Ca ([…], time 14 day): 10.5 mg/dL | Cl ([…], time 14 day): 104.8 meq/L | DBIL ([…], time 14 day): 0.02 mg/dL | GLC ([…], time 14 day): 150.2 mg/dL | IP ([…], time 14 day): 7.9 mg/dL | K ([…], time 14 day): 3.7 meq/L | LDH ([…], time 14 day): 99.2 IU/L | Na ([…], time 14 day): 144 meq/L | PL ([…], time 14 day): 138.6 mg/dL | RALB ([…], time 14 day): 2.7 g/dL | TBIL ([…], time 14 day): 0.078 mg/dL | TC ([…], time 14 day): 92.6 mg/dL | TG ([…], time 14 day): 34.6 mg/dL | TP ([…], time 14 day): 5.9 g/dL | gamma-GTP ([…], time 14 day): 1.2 IU/L | A/G ([…], time 28 day): 0.8 | ALP ([…], time 28 day): 579.8 IU/L | ALT ([…], time 28 day): 21 IU/L | AST ([…], time 28 day): 58.6 IU/L | BUN ([…], time 28 day): 14.8 mg/dL | CRE ([…], time 28 day): 0.2 mg/dL | Ca ([…], time 28 day): 10 mg/dL | Cl ([…], time 28 day): 103.4 meq/L | DBIL ([…], time 28 day): 0.016 mg/dL | GLC ([…], time 28 day): 144.6 mg/dL | IP ([…], time 28 day): 7.5 mg/dL | K ([…], time 28 day): 3.6 meq/L | LDH ([…], time 28 day): 51.2 IU/L | Na ([…], time 28 day): 144.6 meq/L | PL ([…], time 28 day): 149.6 mg/dL | RALB ([…], time 28 day): 2.8 g/dL | TBIL ([…], time 28 day): 0.096 mg/dL | TC ([…], time 28 day): 104.2 mg/dL | TG ([…], time 28 day): 36 mg/dL | TP ([…], time 28 day): 6.2 g/dL | gamma-GTP ([…], time 28 day): 1.2 IU/L
